Test results from article PMC9596378, “Discovery and molecular basis of subtype-selective cyclophilin inhibitors” (Nature Chemical Biology, 2022).
Several values for one entry are separate records, joined by “and”; a condition that tells them apart may be missing. Equal values may be shown once. Read-outs that look alike come from different tables or passages of the source.

How the values were obtained:
[1] = biological target: T1, CypB (Homo sapiens, UniProt P23284); assay: biochemical; details: for CypB prolyl-isomerase assay raw dose-response value: Fig. 3b source data, replicates
T1 construct: PPIB (UniProtKB Entry P23284: residues 34–216); His6 with TEV site (2BT vector leader) (N); made in house; host or cells: E. coli BL21(DE3)
Summary of the method: (§1)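 Cyclophilin (5 nM final) in 25 mM HEPES pH 7.3, 100 mM NaCl, 0.01% Triton X-100 was preincubated with compound (0.25% DMSO) 5 min at 2–3 °C, then with 25 µM α-chymotrypsin 5 min. Suc-AAPF-AMC (5 µM, in LiCl/trifluoroethanol) started the reaction; AMC fluorescence read every 1 s for 330 s.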

[2] = biological target: T2, PPIL1 (Homo sapiens, UniProt Q9Y3C6); assay: Chymotrypsin coupled prolyl-isomerase assay; type: biochemical; details: for PPIL1 prolyl-isomerase assay raw dose-response value: Fig. 3b source data, replicates
T2 construct: PPIL1 (UniProtKB Entry Q9Y3C6: residues 1–166); made in house; host or cells: E. coli BL21(DE3)
T2 sequence (Q9Y3C6 1-166): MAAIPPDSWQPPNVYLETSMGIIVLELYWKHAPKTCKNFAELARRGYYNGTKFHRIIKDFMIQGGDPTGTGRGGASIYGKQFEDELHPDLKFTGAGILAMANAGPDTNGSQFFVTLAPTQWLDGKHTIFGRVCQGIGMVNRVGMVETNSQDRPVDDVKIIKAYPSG

[3] = biological target: T3, CypE (Homo sapiens, UniProt Q9UNP9); assay: Chymotrypsin coupled prolyl-isomerase assay; type: biochemical; details: for CypE prolyl-isomerase assay raw dose-response value: Fig. 3b source data, replicates
T3 construct: PPIE (UniProtKB Entry Q9UNP9: residues 131–301); host or cells: E. coli BL21(DE3)
Summary of the method: as §1

[4] = biological target: T4, CypA (Homo sapiens, UniProt P62937); assay: Chymotrypsin coupled prolyl-isomerase assay; type: biochemical; details: for CypA prolyl-isomerase assay raw dose-response value: Fig. 3b source data, replicates
T4 construct: PPIA (UniProtKB Entry P62937: residues 1–165); made in house; host or cells: E. coli BL21(DE3)
Summary of the method: as §1

[5] = biological target: T5, CypG (Homo sapiens, UniProt Q13427); assay: Chymotrypsin coupled prolyl-isomerase assay; type: biochemical; details: for CypG prolyl-isomerase assay raw dose-response value: Fig. 3b source data, replicates
T5 construct: PPIG (UniProtKB Entry Q13427: residues 1–179); His6 with thrombin site (pET28a LIC leader) (N); host or cells: E. coli BL21(DE3)
T5 sequence (Q13427 1-179): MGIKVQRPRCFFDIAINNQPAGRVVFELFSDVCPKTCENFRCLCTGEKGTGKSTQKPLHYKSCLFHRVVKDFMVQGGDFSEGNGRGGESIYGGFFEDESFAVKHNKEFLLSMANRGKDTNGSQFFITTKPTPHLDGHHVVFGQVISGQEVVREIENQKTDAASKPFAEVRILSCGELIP
Summary of the method: as §1

[6] = biological target: T6, CypH (Homo sapiens, UniProt O43447); assay: Chymotrypsin coupled prolyl-isomerase assay; type: biochemical; details: for CypH prolyl-isomerase assay raw dose-response value: Fig. 3b source data, replicates
T6 construct: PPIH (UniProtKB Entry O43447: residues 1–177); His6 with TEV site (2BT vector leader) (N); made in house; host or cells: E. coli BL21(DE3)
Summary of the method: as §1

[7] = biological target: T7, CypC (Homo sapiens, UniProt P45877); assay: Chymotrypsin coupled prolyl-isomerase assay; type: biochemical; details: for CypC prolyl-isomerase assay raw dose-response value: Fig. 3b source data, replicates
T7 construct: PPIC (UniProtKB Entry P45877: residues 24–212); host or cells: E. coli BL21(DE3)
Summary of the method: as §1

T7 sequence (P45877 24-212): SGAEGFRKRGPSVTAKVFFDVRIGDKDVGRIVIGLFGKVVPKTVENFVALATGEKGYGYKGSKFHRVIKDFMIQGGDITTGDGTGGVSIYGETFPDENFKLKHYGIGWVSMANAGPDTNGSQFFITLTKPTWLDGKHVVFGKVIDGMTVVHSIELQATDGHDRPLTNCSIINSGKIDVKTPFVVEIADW
T4 sequence (P62937 whole entry, the tested form may be a part): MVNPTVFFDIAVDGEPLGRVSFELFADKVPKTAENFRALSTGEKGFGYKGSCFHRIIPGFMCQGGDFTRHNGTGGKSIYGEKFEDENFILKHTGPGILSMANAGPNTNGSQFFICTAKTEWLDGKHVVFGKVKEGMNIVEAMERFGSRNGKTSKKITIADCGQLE
T6 sequence (O43447 whole entry, the tested form may be a part): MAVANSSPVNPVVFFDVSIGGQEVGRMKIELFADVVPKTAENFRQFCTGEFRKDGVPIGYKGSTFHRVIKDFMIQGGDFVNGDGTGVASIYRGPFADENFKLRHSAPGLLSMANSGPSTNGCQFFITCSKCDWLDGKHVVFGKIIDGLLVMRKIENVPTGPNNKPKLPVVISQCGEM
T1 sequence (P23284 34-216): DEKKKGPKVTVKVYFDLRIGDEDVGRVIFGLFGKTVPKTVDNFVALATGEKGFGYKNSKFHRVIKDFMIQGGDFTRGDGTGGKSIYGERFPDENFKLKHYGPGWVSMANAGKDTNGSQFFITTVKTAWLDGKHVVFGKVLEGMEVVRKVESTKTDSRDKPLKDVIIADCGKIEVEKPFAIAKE
T3 sequence (Q9UNP9 131-301): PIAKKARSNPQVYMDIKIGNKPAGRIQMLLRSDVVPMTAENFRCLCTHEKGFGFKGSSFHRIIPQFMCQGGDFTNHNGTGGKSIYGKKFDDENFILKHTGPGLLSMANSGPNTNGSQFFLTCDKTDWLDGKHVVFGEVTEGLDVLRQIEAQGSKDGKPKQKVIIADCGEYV

NCCOCCNC(=O)[C@@H]1CCNC(=O)/C=C/C(=O)N2CCC[C@](Cc3ccccc3)(C2)C(=O)N[C@@H](Cc2ccc(-c3ccc(C#CC(=O)O)cc3)cc2)C(=O)NCc2ccccc2CC(=O)N1 [Compound B25]
IC50 ([1]; CypB (comparator for CypB E121S), read-out: Mutant Cyclophilin Prolyl Isomerase Inhibition IC50 Values, CypB): 11 nM
CypB prolyl-isomerase assay raw dose-response value ([1]; Dose 0.000457247 µM): 0.06463 and 0.04091 and 0.06594
CypB prolyl-isomerase assay raw dose-response value ([1]; Dose 0.00137174 µM): 0.06615 and 0.04875 and 0.05304
CypB prolyl-isomerase assay raw dose-response value ([1]; Dose 0.00411523 µM): 0.04683 and 0.04984
CypB prolyl-isomerase assay raw dose-response value ([1]; Dose 0.0123457 µM): 0.03647 and 0.03228 and 0.03371
CypB prolyl-isomerase assay raw dose-response value ([1]; Dose 0.037037 µM): 0.02322 and 0.02268 and 0.02146
CypB prolyl-isomerase assay raw dose-response value ([1]; Dose 0.111111 µM): 0.01709 and 0.01633 and 0.0158
CypB prolyl-isomerase assay raw dose-response value ([1]; Dose 0.333333 µM): 0.01481 and 0.01358 and 0.01262
CypB prolyl-isomerase assay raw dose-response value ([1]; Dose 1 µM): 0.01394 and 0.01269 and 0.01205
IC50 ([1]; prolyl-isomerase inhibition, 5 nM cyclophilin, read-out: IC50 CypB): 11 ± 3 nM
IC50 ([1]; wild-type CypB, read-out: Wild-Type Cyclophilin Prolyl Isomerase Inhibition IC50 Values, CypB): 11 nM
PPIL1 prolyl-isomerase assay raw dose-response value ([2]; Dose 0.0228624 µM): 0.0374 and 0.04134 and 0.04686
PPIL1 prolyl-isomerase assay raw dose-response value ([2]; Dose 0.0685871 µM): 0.02743 and 0.02671 and 0.02724
PPIL1 prolyl-isomerase assay raw dose-response value ([2]; Dose 0.205761 µM): 0.01848 and 0.01869
PPIL1 prolyl-isomerase assay raw dose-response value ([2]; Dose 0.617284 µM): 0.01432 and 0.01378 and 0.01288
PPIL1 prolyl-isomerase assay raw dose-response value ([2]; Dose 1.85185 µM): 0.01263 and 0.01274 and 0.01211
PPIL1 prolyl-isomerase assay raw dose-response value ([2]; Dose 5.55556 µM): 0.01183 and 0.01164 and 0.01059
PPIL1 prolyl-isomerase assay raw dose-response value ([2]; Dose 16.6667 µM): 0.01229 and 0.01158 and 0.01139
PPIL1 prolyl-isomerase assay raw dose-response value ([2]; Dose 50 µM): 0.01421 and 0.01181 and 0.01108
IC50 ([2]; wild-type PPIL1, read-out: Wild-Type Cyclophilin Prolyl Isomerase Inhibition IC50 Values, PPIL1): 20 nM
CypE prolyl-isomerase assay raw dose-response value ([3]; Dose 0.000457247 µM): 0.09478 and 0.08516 and 0.1307
CypE prolyl-isomerase assay raw dose-response value ([3]; Dose 0.00137174 µM): 0.1073 and 0.09145 and 0.116
CypE prolyl-isomerase assay raw dose-response value ([3]; Dose 0.00411523 µM): 0.07586 and 0.07841
CypE prolyl-isomerase assay raw dose-response value ([3]; Dose 0.0123457 µM): 0.04723 and 0.04807 and 0.05181
CypE prolyl-isomerase assay raw dose-response value ([3]; Dose 0.037037 µM): 0.02767 and 0.0265 and 0.02701
CypE prolyl-isomerase assay raw dose-response value ([3]; Dose 0.111111 µM): 0.01749 and 0.01613 and 0.01666
CypE prolyl-isomerase assay raw dose-response value ([3]; Dose 0.333333 µM): 0.01375 and 0.01292 and 0.01229
CypE prolyl-isomerase assay raw dose-response value ([3]; Dose 1 µM): 0.01434 and 0.0116 and 0.01112
IC50 ([3]; wild-type CypE, read-out: Wild-Type Cyclophilin Prolyl Isomerase Inhibition IC50 Values, CypE): 9 nM
IC50 ([4]; CypA column within the mutant section (comparator for CypA E81S/K82R), read-out: Mutant Cyclophilin Prolyl Isomerase Inhibition IC50 Values, CypA): 37 nM
CypA prolyl-isomerase assay raw dose-response value ([4]; Dose 0.00457247 µM): 0.1146 and 0.097 and 0.1434
CypA prolyl-isomerase assay raw dose-response value ([4]; Dose 0.0137174 µM): 0.07936 and 0.08714 and 0.118
CypA prolyl-isomerase assay raw dose-response value ([4]; Dose 0.0411523 µM): 0.05569 and 0.06344 and 0.07261
CypA prolyl-isomerase assay raw dose-response value ([4]; Dose 0.123457 µM): 0.03132 and 0.03338 and 0.03777
CypA prolyl-isomerase assay raw dose-response value ([4]; Dose 0.37037 µM): 0.02003 and 0.0199 and 0.02096
CypA prolyl-isomerase assay raw dose-response value ([4]; Dose 1.11111 µM): 0.015 and 0.01431 and 0.01411
CypA prolyl-isomerase assay raw dose-response value ([4]; Dose 3.33333 µM): 0.01402 and 0.01221 and 0.01255
CypA prolyl-isomerase assay raw dose-response value ([4]; Dose 10 µM): 0.01563 and 0.01147 and 0.01176
IC50 ([4]; prolyl-isomerase inhibition, 5 nM cyclophilin, read-out: IC50 CypA): 37 ± 7 nM
IC50 ([4]; wild-type CypA, read-out: Wild-Type Cyclophilin Prolyl Isomerase Inhibition IC50 Values, CypA): 37 nM
CypG prolyl-isomerase assay raw dose-response value ([5]; Dose 0.0228624 µM): 0.06249 and 0.05548 and 0.0638
CypG prolyl-isomerase assay raw dose-response value ([5]; Dose 0.0685871 µM): 0.05565 and 0.04551* and 0.05901
CypG prolyl-isomerase assay raw dose-response value ([5]; Dose 0.205761 µM): 0.04568 and 0.0619
CypG prolyl-isomerase assay raw dose-response value ([5]; Dose 0.617284 µM): 0.03977 and 0.04815 and 0.06466
CypG prolyl-isomerase assay raw dose-response value ([5]; Dose 1.85185 µM): 0.05698 and 0.05304 and 0.05804
CypG prolyl-isomerase assay raw dose-response value ([5]; Dose 5.55556 µM): 0.0448 and 0.05687 and 0.05139
CypG prolyl-isomerase assay raw dose-response value ([5]; Dose 16.6667 µM): 0.04193 and 0.04196 and 0.0448
CypG prolyl-isomerase assay raw dose-response value ([5]; Dose 50 µM): 0.03044 and 0.02213 and 0.02754
IC50 ([5]; prolyl-isomerase inhibition, 5 nM cyclophilin, read-out: IC50 CypG): ~25 µM
IC50 ([5]; wild-type CypG, read-out: Wild-Type Cyclophilin Prolyl Isomerase Inhibition IC50 Values, CypG): 25 µM
CypH prolyl-isomerase assay raw dose-response value ([6]; Dose 0.0228624 µM): 0.04387 and 0.03667 and 0.04369
CypH prolyl-isomerase assay raw dose-response value ([6]; Dose 0.0685871 µM): 0.04493 and 0.03523 and 0.04571
CypH prolyl-isomerase assay raw dose-response value ([6]; Dose 0.205761 µM): 0.04732 and 0.03749
CypH prolyl-isomerase assay raw dose-response value ([6]; Dose 0.617284 µM): 0.04296 and 0.03867 and 0.04263
CypH prolyl-isomerase assay raw dose-response value ([6]; Dose 1.85185 µM): 0.0451 and 0.03462 and 0.04053
CypH prolyl-isomerase assay raw dose-response value ([6]; Dose 5.55556 µM): 0.04418 and 0.03887 and 0.03972
CypH prolyl-isomerase assay raw dose-response value ([6]; Dose 16.6667 µM): 0.03817 and 0.03665 and 0.03617
CypH prolyl-isomerase assay raw dose-response value ([6]; Dose 50 µM): 0.02975 and 0.02514 and 0.02678
IC50 ([6]; prolyl-isomerase inhibition, 5 nM cyclophilin, read-out: IC50 CypH): ~50 µM
IC50 ([6]; wild-type CypH, read-out: Wild-Type Cyclophilin Prolyl Isomerase Inhibition IC50 Values, CypH): 50 µM
CypC prolyl-isomerase assay raw dose-response value ([7]; Dose 0.0228624 µM): 0.03634 and 0.03032 and 0.04283
CypC prolyl-isomerase assay raw dose-response value ([7]; Dose 0.0685871 µM): 0.03426 and 0.03095 and 0.03961
CypC prolyl-isomerase assay raw dose-response value ([7]; Dose 0.205761 µM): 0.03174 and 0.03534
CypC prolyl-isomerase assay raw dose-response value ([7]; Dose 0.617284 µM): 0.02955 and 0.03116 and 0.0299
CypC prolyl-isomerase assay raw dose-response value ([7]; Dose 1.85185 µM): 0.02445 and 0.02477 and 0.02432
CypC prolyl-isomerase assay raw dose-response value ([7]; Dose 5.55556 µM): 0.0192 and 0.01832 and 0.02111
CypC prolyl-isomerase assay raw dose-response value ([7]; Dose 16.6667 µM): 0.016 and 0.01339 and 0.01312
CypC prolyl-isomerase assay raw dose-response value ([7]; Dose 50 µM): 0.01835 and 0.01198 and 0.01251
IC50 ([7]; wild-type CypC, read-out: Wild-Type Cyclophilin Prolyl Isomerase Inhibition IC50 Values, CypC): 1800 nM
